From ChEMBL document CHEMBL1157209, “QSAR study on a novel series of 8-azaadenine analogues proposed as A1 adenosine receptor antagonists” (Eur J Med Chem, 2008) come the findings set out here.

In this test the target is T1, Adenosine receptor A1 (Bos taurus, UniProt P28190).
T1 sequence (P28190 whole entry): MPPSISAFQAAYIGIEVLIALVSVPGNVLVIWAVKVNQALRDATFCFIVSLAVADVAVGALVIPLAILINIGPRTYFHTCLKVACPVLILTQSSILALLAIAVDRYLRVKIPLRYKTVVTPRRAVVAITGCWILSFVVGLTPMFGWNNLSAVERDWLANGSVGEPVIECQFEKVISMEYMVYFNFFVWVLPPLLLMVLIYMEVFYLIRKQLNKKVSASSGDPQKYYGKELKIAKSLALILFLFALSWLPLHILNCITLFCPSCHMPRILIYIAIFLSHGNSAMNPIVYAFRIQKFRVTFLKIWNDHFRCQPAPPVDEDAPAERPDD
The test is described as follows: Binding affinity to bovine adenosine A1 receptor.
For `OC1CCC(Nc2nc(-c3ccccc3)nc3c2nnn3Cc2ccccc2)CC1` (stereo not drawn), the Ki is 2.7 nM.

Turning to `COc1ccc(C(=O)Nc2nc(-c3ccccc3)nc3c2nnn3Cc2ccccc2)cc1`, affinity was put at a Ki of 3.24 nM.

Compound `OC1CCC(Nc2nc(-c3ccccc3)nc3c2nnn3Cc2ccccc2F)CC1` (stereo not drawn) showed an inhibition constant (Ki) of 1.85 nM.

With `COc1ccc(C(=O)Nc2nc(-c3ccccc3)nc3c2nnn3Cc2ccccc2Cl)cc1`, the affinity corresponds to a Ki of 20 nM.

`O[C@H]1CCCC[C@@H]1Nc1nc(-c2ccccc2)nc2c1nnn2Cc1ccccc1` showed a Ki of 10.3 nM.

With `OC1CCC(Nc2nc(-c3ccccc3)nc3c2nnn3Cc2ccccc2Cl)CC1` (stereo not drawn), the Ki was 3.1 nM.

As to `COc1ccc(C(=O)Nc2nc(-c3ccccc3)nc3c2nnn3Cc2ccccc2F)cc1`, the Ki was 21.9 nM.

Regarding `c1ccc(Cn2nnc3c(NC4CCCCC4)nc(-c4ccccc4)nc32)cc1`, the inhibitory constant (Ki) was 1.6 nM.

By Ki is commonly meant the equilibrium dissociation constant of an inhibitor or competing ligand from its target. A low value points to tighter binding.
